From patent US8076485B2, “Methylphenidate derivatives and uses of them” (priority 2005, dated 2011) come the findings set out here.

Structures are written as SMILES.

Experiment [1] concerns NFκB. Kind of experiment: Activated NFκB in TNFα- or VEGF-treated HIAECs (TransAM assay). In kind it is cell-based. The following applies: Homo sapiens, VEGF 10 ng/ml, Cpd II 15 μg/ml, read-out: Percent Inhibition (NFκB). As to the method: Passage 8 (human iliac artery endothelial cells (HIAECs) (obtained from ATCC; catalog no. CC-2545) were grown to confluence in 25 cm^2 flasks in EGM-2 medium. Eighteen hours prior to the experiment, the medium was replaced with EGM-2 medium containing 0.1% FCS plus heparin, GA1000 (gentamycin) and bovine pituitary extract (all from Cambrex) to place the cells in a resting state. To perform the experiment the medium was aspirated from the flasks, and the following additives were added to the flasks in fresh medium (total volume of 5 ml/flask): 15 μg/ml of the compound of formula II (Cpd II) or 10 μM LY 294002. The flasks were incubated 2 hours at 37° C., 5% CO2. After this incubation, VEGF or TNFα was added to give a final concentration 10 ng/ml, and the flasks were incubated for an additional 30 minutes. Then, the amount of NFκB was determined using a TransAM™ NFκB p65/NFκB p50 Transcription Factor Assay Kit and a Nuclear Extract Kit from Active Motif North America, Carlsbad, Calif., as described in Example 12.

Another experiment deals with Ras. Kind of experiment: Ras activation pulldown assay in TRiPS cells. The class given is cell-based, human. The following applies: 15 μg/ml. As to the method:
Day 10 TRiPS cells, 1×10^6, were incubated with 15 μg/ml of the compound of formula II (Cpd II) for 1 hour at 37° C. Then, the cells were incubated with CD3/CD28 beads (1 μl per 100,000 cells) (obtained from Dynal) for 10 minutes at 37° C. The cells were then lysed with a mild buffer (supplied with Pierce EZ-Detect activation kit described below) to produce cell extracts. Protein concentrations of the resulting extracts were determined by bicinchoninic acid (BCA) assay (Pierce) and placed on ice for immediate use.
Pulldown assays were performed using Pierce EZ-Detect activation kits according to the manufacturer's instructions utilizing GST-RAF-1-RBD and GST-RalGDS-RBD for Ras and RAP-1 respectively. Briefly, 400 μg total protein from each extract was combined with recombinant protein and glutathione resin and incubated at 4° C. for one hour with gentle shaking The resin was then washed to remove unbound protein and the activated Ras and RAP-1 proteins were removed by boiling in the presence of SDS-PAGE loading dye containing reducing agent. Ras and RAP-1 western blots were performed to visualize the proteins using antibodies supplied with the kit. Densitometry of the X-ray films was done by scanning and computer analysis.

The test system of experiment [2] is peripheral blood lymphocytes (PBL). Kind of experiment: PHA-induced cell clumping of PBL. The class given is cell-based, human. The following applies: Example 1, PBL of donor GR283; compound 5, 15, 50 μg/ml; 5 μg/ml PHA; 72 hours. As to the method: Whole blood was drawn from GR283, a human volunteer with known allergies, into a glass vacutainer tube containing no anticoagulant. This blood was allowed to clot, and the serum was removed by centrifugation and then heat inactivated by placing it in a water bath at 56° C. for 30 minutes. Whole blood from GR283 was also drawn into a glass vacutainer tube containing heparin and used for peripheral blood lymphocytes (PBL) isolation as follows. Whole blood was layered over room temperature Histopaque 1077 solution and centrifuged at 2000 rpm for 15 minutes at room temperature. Cells at the plasma-Histopaque interface were then removed and washed with culture medium (IMDM medium with 10% heat-inactivated GR283 serum plus 1% penicillin/streptomycin) at 37° C.
The compound of formula II (see above) and methylphenidate (both obtained from Dr. Jeffrey D. Winkler, University of Pennsylvania, Philadelphia, Pa.) in culture medium were added to wells of a 96-well plate to give final concentrations of 5 μg/ml, 15 μg/ml and 50 μg/ml of the compound of formula II and of methylphenidate. […] Then, GR283's PBL in culture medium were added to the wells to give a final concentration of 150,000 cells per well, and the plates were incubated at 37° C., 5% CO2 for 24 hours. […]

The next experiment deals with TNFα. Kind of experiment: TNFα release from LPS-stimulated THP-1 monocytes (ELISA). The following applies: THP-1, LPS 200 ng/ml; Cpd II 15 μg/ml, Dex 10 μM. In kind it is cell-based. The protocol:
THP-1 is a monocyte cell line obtained from American Type Culture Collection (ATCC) (catalog no. TIB-202). […] After 1 hour, lipopolysaccharide (LPS) (obtained from Sigma) was added to the cultures to give a final concentration of 200 ng/ml, and the cells were then incubated for an additional 4 hours or for an additional 24 hours. After the incubation, the cells were centrifuged, and the supernatants were collected. The concentrations of IL-8 and TNFα in the supernatants were determined by ELISA.
The TNFα ELISA was performed as described in Example 2.

Experiment [3] concerns NFκB. Kind of experiment: Activated NFκB in VEGF-treated HUVECs (TransAM assay). The class given is cell-based, human. The settings on record: Cpd II at 15 μg/ml and 5 μg/ml. As to the method: Passage 5 HUVECs, human source lot number 8750, were grown to confluence in 25 cm^2 flasks in EGM-2 medium. The following additives were added to the flasks (total volume of 5 ml/flask) in EGM-2 medium containing 2% FCS, GA1000 (gentamycin), heparin and ascorbic acid (all from Cambrex): 1 μg/ml of the compound of formula II (Cpd II); 5 μg/ml Cpd II; 15 μg/ml of Cpd II; 15 μg/ml methylphenidate (MP); or 10 μM LY 294002. The flasks were incubated overnight at 37° C., 5% CO2. After this incubation, VEGF was added to give a final concentration 10 ng/ml, and the flasks were incubated for an additional 30 minutes.
Then, the amount of NFκB was determined using a TransAM™ NFκB p65/NFκB p50 Transcription Factor Assay Kit and a Nuclear Extract Kit from Active Motif North America, Carlsbad, Calif., according to the manufacturer's instructions. Briefly, a nuclear extract of the cells was prepared using the Nuclear Extract Kit. Then, the nuclear extract was added to the wells of the 96-well plate of the TransAM™ kit. […] Then, an antibody directed against the NFκB p65 or p50 subunit was added, and the NFκB complex bound to the oligonucleotide was detected. A secondary antibody conjugated to horseradish peroxidase (HRP) was next added to provide a colorimetric readout that was quantified by spectrophotometry (measurement at 450 nm).

For orientation: inhibition means the share of the control response that was lost under treatment. As to `COC(=O)C(c1ccc(-c2ccccc2)cc1)C1CCCCN1` (centres unmarked) [Cpd II], in the experiment on NFκB [1], the inhibition at 15 µg/mL was 70%. Also, the “inhibition of Ras protein” value with Ras is recorded as “very strong inhibition of Ras protein”. In addition, the “amount of cell clumping induced by PHA” value in experiment [2] is “reduced the amount of cell clumping induced by 5 μg/ml PHA in a dose-dependent manner”. For the same molecule, in the experiment with TNFα, the “release of TNFα from the LPS-stimulated monocytes” value is reported as “significantly inhibited the release of TNFα”. In addition, in the experiment on NFκB [3], the “amount of activated NFκB” value is on record as “reduced the amount of activated NFκB back to basal levels”.
